Patent US10899793B2, “Melanocortin ligands and methods of use thereof” (priority 2016, dated 2021)
Square brackets hold non-standard residues; d marks the D form. Peptide text beside a SMILES is read from it. dPhe(4-I) = N[C@H](Cc1ccc(I)cc1)C(=O)O; d2Nal = N[C@H](Cc1ccc2ccccc2c1)C(=O)O; Bta = N[C@@H](Cc1csc2ccccc12)C(=O)O; Tic = O=C(O)[C@@H]1Cc2ccccc2CN1; Nle = CCCC[C@H](N)C(=O)O

What was measured:
mMC4R [1] = biological target: T1, mMC4R (Mus musculus, UniProt P56450); test: 125I-NDP-MSH competitive binding assay at mMC4R; settings: Table 3; vs Ac-His-DPhe-Arg-Trp-NH2; negative = more potent than control
mMC3R [2] = biological target: T2, mMC3R (Mus musculus, UniProt P33033); settings: Table 1; Schild analysis, pA2 = -Log(Ki); Full Agonist = full dose-response, No Activity = no shift in EC50
mMC4R [3] = biological target: T1, mMC4R; test: AlphaScreen cAMP agonist assay at mMC4R; settings: read-out: mMC4R Agonist, percent of the NDP-MSH maximal positive control
mMC3R [4] = biological target: T2, mMC3R; test: 125I-NDP-MSH competitive binding assay at mMC3R; design: expressed in transfected cells; settings: for mMC3R (IC50) Fold Diff.: Table 3, vs Ac-His-DPhe-Arg-Trp-NH2, negative = more potent than control
Description: A typical experiment utilized a 12-well format. […] Pharm. Des.
The plates were incubated at 37° C. with 5% CO2 for 1 hour. Post incubation, the media was aspirated, each well was washed with 500 μL assay media, and cells were lysed with 500 μL of 0.1 M NaOH and 500 μL of 1% Triton x-100.
Following a 10-15 minute room temperature incubation, the cell lysate mixture was transferred to 12×75 mm polystyrene tubes and the radioactivity was quantified using a WIZARD^2 Automatic Gamma Counter (Perkin-Elmer). […] GraphPad, Inc), and dose-response curves in addition to the corresponding IC50 values were calculated by a non-linear regression method. Each reported value represents the mean and standard error of the mean (SEM) of, at least, two independent experiments each containing two experimental replicates.
Note each reported value represents the mean and standard error of the mean (SEM) of at least two independent experiments containing two experimental replicates.

mMC3R [5] = biological target: T2, mMC3R; design: expressed in transfected cells; settings: Joseph et al. 2003; read-out: reported stimulation potency at the mMC3R; cited from earlier work
mMC4R [6] = biological target: T1, mMC4R; design: expressed in transfected cells; settings: Joseph et al. 2003; read-out: reported stimulation potency at the mMC4R; cited from earlier work

T2 sequence (P33033 whole entry): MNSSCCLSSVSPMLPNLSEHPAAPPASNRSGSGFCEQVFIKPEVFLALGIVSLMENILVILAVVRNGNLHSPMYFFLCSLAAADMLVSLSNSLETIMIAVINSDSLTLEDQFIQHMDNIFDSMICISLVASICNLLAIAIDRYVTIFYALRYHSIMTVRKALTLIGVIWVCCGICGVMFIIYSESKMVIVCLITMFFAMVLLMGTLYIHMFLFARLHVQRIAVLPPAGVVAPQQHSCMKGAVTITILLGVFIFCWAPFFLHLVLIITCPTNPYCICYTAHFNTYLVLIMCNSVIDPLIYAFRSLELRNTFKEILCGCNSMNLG
T1 sequence (P56450 whole entry): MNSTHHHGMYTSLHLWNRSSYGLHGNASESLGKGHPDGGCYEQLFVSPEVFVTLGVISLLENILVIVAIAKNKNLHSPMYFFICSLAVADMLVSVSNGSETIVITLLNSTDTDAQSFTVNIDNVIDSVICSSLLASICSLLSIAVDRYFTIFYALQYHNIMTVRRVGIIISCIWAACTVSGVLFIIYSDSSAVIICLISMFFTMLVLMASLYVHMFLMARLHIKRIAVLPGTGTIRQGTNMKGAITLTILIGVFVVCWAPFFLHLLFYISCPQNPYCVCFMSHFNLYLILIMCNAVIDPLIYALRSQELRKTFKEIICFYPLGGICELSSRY

Row | Molecule | mMC4R (IC50) Fold Diff. (mMC4R [1]) | mMC3R Antagonist pA2 ± SEM (mMC3R [2]) | activation at 100 µM (mMC4R [3]) [%] | mMC3R (IC50) Fold Diff. (mMC3R [4]) | fold improvement of binding IC50 at the mMC3R compared to SKY4-48-1 (mMC3R [4]) [fold] | IC50 (mMC3R [4]) [nM] | EC50 (mMC3R [5]) [nM] | EC50 (mMC4R [6]) [nM]
1 | CC(=O)N[C@@H](Cc1ccccc1)C(=O)N[C@@H](CCCNC(=N)N)C(=O)N[C@H](Cc1ccc(I)cc1)C(=O)N1Cc2ccccc2C[C@H]1C(N)=O [SKY4-48-23, Ac-Phe-Arg-(pI)DPhe-Tic-NH2] (Ac-FR[dPhe(4-I)][Tic]-NH2) | 1 | Full Agonist |  | -20 |  |  |  | 
2 | CC(=O)N[C@@H](CCCNC(=N)N)C(=O)N[C@@H](CCCNC(=N)N)C(=O)N[C@H](Cc1ccc(I)cc1)C(=O)N[C@@H](Cc1ccccc1)C(N)=O [SKY4-48-26, Ac-Arg-Arg-(pI)DPhe-Phe-NH2] | 4 | Full Agonist |  | -8 |  |  |  | 
3 | CC(=O)N[C@H](Cc1ccc2ccccc2c1)C(=O)N[C@@H](CCCNC(=N)N)C(=O)N[C@H](Cc1ccc(I)cc1)C(=O)N1Cc2ccccc2C[C@H]1C(N)=O [SKY6-24-3, Ac-DNal(2′)-Arg-(pI)DPhe-Tic-NH2] (Ac-[d2Nal]R[dPhe(4-I)][Tic]-NH2) | -3 | Full Agonist | 32 | -120 | 120 | 440 |  | 
4 | Ac-Ser-Tyr-Ser-Nle-Glu-His-Arg-Phe-Phe-Gly-Lys-Pro-Val-NH2 (Ac-SYS[Nle]EHRFFGKPV-NH2; SMILES CCCC[C@H](NC(=O)[C@H](CO)NC(=O)[C@H](Cc1ccc(O)cc1)NC(=O)[C@H](CO)NC(C)=O)C(=O)N[C@@H](CCC(=O)O)C(=O)N[C@@H](Cc1c[nH]cn1)C(=O)N[C@@H](CCCNC(=N)N)C(=O)N[C@@H](Cc1ccccc1)C(=O)N[C@@H](Cc1ccccc1)C(=O)NCC(=O)N[C@@H](CCCCN)C(=O)N1CCC[C@H]1C(=O)N[C@H](C(N)=O)C(C)C) [chimeric NDP-MSH/AGRP peptide] |  |  |  |  |  |  | 480 | 930

Now from value to molecule, other results behind:

Row | mMC4R (IC50) Fold Diff. (mMC4R [1]) | mMC3R Antagonist pA2 ± SEM (mMC3R [2]) | activation at 100 µM (mMC4R [3]) [%] | mMC3R (IC50) Fold Diff. (mMC3R [4]) | fold improvement of binding IC50 at the mMC3R compared to SKY4-48-1 (mMC3R [4]) [fold] | IC50 (mMC3R [4]) [nM] | Molecule | EC50 (mMC3R [5]) [nM] | EC50 (mMC4R [6]) [nM]
5 | 1 | Full Agonist | 24 | -52 |  |  | CC(=O)N[C@@H](CCCNC(=N)N)C(=O)N[C@@H](CCCNC(=N)N)C(=O)N[C@H](Cc1ccc(I)cc1)C(=O)N[C@@H](Cc1csc2ccccc12)C(N)=O [SKY4-48-10, Ac-Arg-Arg-(pI)DPhe-3Bal-NH2] |  | 
6 | 2 | Full Agonist | 47 | -15 |  |  | CC(=O)N[C@@H](Cc1c[nH]cn1)C(=O)N[C@@H](CCCNC(=N)N)C(=O)N[C@H](Cc1ccc(I)cc1)C(=O)N[C@@H](Cc1csc2ccccc12)C(N)=O [SKY4-48-11, Ac-His-Arg-(pI)DPhe-3Bal-NH2] (Ac-HR[dPhe(4-I)][Bta]-NH2) |  | 
7 | 7 | Full Agonist |  | -9 | 9 |  | CC(=O)N[C@@H](Cc1ccccc1)C(=O)N[C@@H](CCCNC(=N)N)C(=O)N[C@H](Cc1ccc(I)cc1)C(=O)N[C@@H](Cc1csc2ccccc12)C(N)=O [SKY4-48-15, Ac-Phe-Arg-(pI)DPhe-3Bal-NH2] (Ac-FR[dPhe(4-I)][Bta]-NH2) |  | 
